Consider 9 compounds from patent US5069895A, “Methods for the treatment of alcohol intoxication and dependence” (priority 1989, dated 1991).

Like-named read-outs stand apart in the source and are kept apart here.

The test system of series [1] is mice. Conditions: cited from earlier work; for effect on symptoms of ethanol intoxication: Dar et al. (1985); for intoxicating effect of ethanol: administration over a 10-day period to mice, Dar and Wooles (1986); for ethanol-induced ataxia: pretreated mice, Dar et al. (1987).
Series [2] deals with NG108-15 cells. The series can be described thus: acute effect of ethanol on endogenous cAMP levels. The series is classed as cell-based. A general note: cAMP levels reflect the balance of adenylyl cyclase and phosphodiesterase activity.
Method: NG108-15 cells were grown in defined media as described (Gordon et al. (1986) supra.) to a final density of 12-20×10^6 cells per flask. […] Bars represent means ±SEM, n=4-9.
Series [3] concerns S49 wild type cells. The series can be described thus: agonist stimulation of cAMP levels over basal. How it is done:
(§1) S49 wild type (WT) and adenosine transport mutants (80-2A6 and 160-D4) were grown in defined media (11, without phytohemagglutinin) with 1 U/ml ADA for at least 2 weeks. They were then grown in the presence or absence of 100 mM ethanol with or without 1.5 U/ml ADA for 48 hours. Accumulation of adenosine over 5 min was determined by incubating 1.0×10^7 cells/ml in sterilized PBS in the absence or presence of 200 mM ethanol. Extracellular adenosine concentrations were determined as in FIG. 2. Accumulation of adenosine over 24 hours in the absence or presence of 100 mM ethanol was determined as described by Green (1980) supra.. Assays for receptor-stimulated cAMP levels were carried out as in FIG. 3. […] Values represent means ±SEM. Number of determinations in indicated in parentheses.

The subject of series [4] is C1300 neuroblastoma cells. Conditions: endogenously released, overnight culture; cited from earlier work.
The test system of series [5] is S49 wild type cells. The experiment in a line: receptor-stimulated cAMP levels after chronic ethanol. The series is classed as cell-based. Conditions: for activity at 100000 µM: wild type, 100 mM EtOH 48 hr. How it is done:
as §1

In series [6] the test system is S49 wild type cells. How it is done: as §1
The subject of series [7] is S49 adenosine transport mutant 80-2A6. How it is done:
as §1

In series [8] the test system is cultured lymphocytes. The series can be described thus: cells. The conditions noted are these: for activation at 100000 µM: Homo sapiens, Lymphocyte, 5 min. How it is done:
Lymphocytes from alcoholics and nonalcoholics were grown in culture for 6 days, and 100 mM ethanol was added for 24 hours. The cells were washed, preincubated for 5 minutes in the absence of ethanol, and then incubated in the absence and presence of 100 mM ethanol for 5 minutes. Extracellular adenosine was measured by HPLC (n=5-7 for alcoholics and nonalcoholics).

For series [9], the system named is adenosine transport in freshly isolated lymphocytes. Conditions: lymphocytes from alcoholics vs nonalcoholics, 200 mM ethanol 3 min, uptake at 10 seconds.
Method: Uptake of [^3 H]-adenosine in freshly isolated lymphocytes from nonalcoholics and actively drinking alcoholics was also measured.
In series [10] the test system is S49 adenosine transport mutant 160-D4. The series can be described thus: cells. Conditions: 48 h. How it is done: as §1
For series [11], the system named is S49 adenosine transport mutant 80-2A6. The series can be described thus: cells. The conditions noted are these: 48 h. How it is done: as §1
Series [12] deals with NG108-15 cells. Conditions: 200 mM ethanol, 10 min. How it is done: NG108-15 cells (5×10^6 cells/well) were incubated with 2 ml of PBS in the presence or absence of 200 mM ethanol for 10 min. Fluorescent derivatives of adenosine were prepared (Green (1980) supra.) and injected onto a reverse-phase HPLC column equilibrated with 1.2 mM KPO4, pH 5 and eluted with a 0-60% methanol gradient. Peak areas were compared with those of known amounts of 1,N^6 -ethenoadenosine.

The mark [13] stands for this setting: read-out: cAMP levels, 1 uM PGE1.
Where [14] appears, read: read-out: cAMP levels, 100 uM PIA.

Regarding `OCCN(CCO)c1nc(N2CCCCC2)c2nc(N(CCO)CCO)nc(N3CCCCC3)c2n1` [Dipyridamole], the “effect on symptoms of ethanol intoxication” value in series [1] is given as “potentiating effect on certain symptoms of ethanol intoxication”.

For `CC(C)Cn1c(=O)n(C)c(=O)c2[nH]cnc21` [IBMX, isobutylmethylxanthine], the “effect on ethanol-induced increase in cAMP levels” value in series [2] (co-incubation with ethanol 10 min, 1 U/ml ADA or isobutylmethylxanthine) was “completely blocked”. Further, in series [1], the “intoxicating effect of ethanol” value was “increased” and the ethanol-induced ataxia result was “significant potentiation”.

`CCCCC[C@H](O)/C=C/[C@H]1[C@H](O)CC(=O)[C@@H]1CCCCCCC(=O)O` [PGE1]: the maximal fold induction in series [3] (Mus musculus, read-out: increase in cAMP levels over basal) amounted to 13.5 ± 3.5.

As for `C[C@H](Cc1ccccc1)Nc1ncnc2c1ncn2[C@@H]1O[C@H](CO)[C@@H](O)[C@H]1O` [PIA], the “increase in cAMP levels over basal” value in series [3] (maximally-effective concentration) was determined as 1.92±0.41 fold.

Consider `Nc1ncnc2c1ncn2[C@@H]1O[C@H](CO)[C@@H](O)[C@H]1O` [adenosine], for which, in [4], the “concentration sufficient to desensitize adenosine receptor-dependent cAMP production” value was 10 to 20 nM.

Take `Cn1c(=O)c2c(ncn2C)n(C)c1=O` [caffeine]: in series [1], the “intoxicating effect of ethanol” value was “increased” and the ethanol-induced ataxia entry is listed as “significant potentiation”.

As to `CCO` [ethanol], the activity at 100000 µM came to 36 ± 6% in series [5] (setting [13]); 65 ± 7% in series [5] (setting [14]); 98 ± 7% in series [10] (setting [13]); 94 ± 9% in series [10] (setting [14]); 82 ± 7% in series [11] (setting [13]); 115 ± 11% in series [11] (setting [14]). The activation at 200000 µM in series [2] (Homo sapiens, NG108-15, 10 min, 200 mM ethanol, 10 min, no added agonist, read-out: increase in intracellular cAMP concentration) was found to be 60%. Moreover, the “extracellular adenosine, EtOH” value in series [6] (5 min, EtOH 200 nM as printed) is listed as 17.6 ± 3.6 nM/10^7 cells; in series [6] (24 hr, EtOH 100 nM as printed), 56.7 ± 10.2 nM/10^7 cells; in series [7] (80-2A6, 5 min, EtOH 200 mM), 0 nM/10^7 cells; in [7] (80-2A6, 24 hr, EtOH 100 mM), 0 nM/10^7 cells. In addition, the activation at 100000 µM in [8] (read-out: increase in extracellular adenosine on rechallenge, lymphocytes from alcoholics, after chronic ethanol, rechallenge 100 mM ethanol) worked out at 73%; in series [8] (read-out: increase in extracellular adenosine, lymphocytes from alcoholics, 100 mM ethanol 5 min) it was 37%; in series [8] (read-out: increase in extracellular adenosine, lymphocytes from nonalcoholics, 100 mM ethanol 5 min), 17%. Also, the “increase in extracellular adenosine on rechallenge” value in series [8] (lymphocytes from nonalcoholics, after 100 mM ethanol 24 hours, rechallenge) is on record as “did not increase extracellular adenosine”. Also, the “inhibition of adenosine uptake” value in series [9] is given as “less inhibition by ethanol compared to uptake in cells from nonalcoholics”. The compound further displayed an extracellular adenosine concentration in [12] of 37±1.2 nM/5×10^6 cells.

On to `OC[C@H]1O[C@@H](n2cnc3c(O)ncnc32)[C@H](O)[C@@H]1O` [inosine, reference compound], for which, in series [5] (S49 wild type cells exposed 48 hr, data not shown), the “desensitization of the adenosine receptor” value is “did not desensitize the adenosine receptor”.

For the compound `Cn1c(=O)c2[nH]cnc2n(C)c1=O` [theophylline], in [1], the “effect on symptoms of ethanol intoxication” value is reported as “ameliorated certain symptoms of intoxication while having no effect on others”, the “intoxicating effect of ethanol” value is given as “appeared to have no effect” and the ethanol-induced ataxia entry is “significant potentiation”.
